Reference: patent publication US12570648B2, “6,7-dihydro-5H-pyrido[2,3-c]pyridazine derivatives and related compounds as Bcl-xL protein inhibitors and pro-apoptotic agents for treating cancer” (LES LABORATOIRES SERVIER, priority 2019, dated 2026)

Tests used:
[1] = target: His-His-(EK)-hsBCLXL(2-197)[N197C] (Homo sapiens (Human), UniProt Q07817, N197C); experiment: Fluorescence quenching assay; format: binding; conditions: 1 nM Cy5-labelled protein, 400 nM PUMA peptide, 2 hours at 23° C.; KI determined from IC50
Chain of His-His-(EK)-hsBCLXL(2-197)[N197C] (Q07817 2-197 N197C): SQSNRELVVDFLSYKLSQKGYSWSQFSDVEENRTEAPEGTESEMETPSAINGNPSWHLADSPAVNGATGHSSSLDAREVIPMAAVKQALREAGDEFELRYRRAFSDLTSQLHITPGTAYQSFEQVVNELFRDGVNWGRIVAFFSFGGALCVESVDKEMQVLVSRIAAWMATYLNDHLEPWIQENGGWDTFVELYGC
Summary of the method: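 Ki values converted from IC50s, measured as fluorescence increase (Ex 620/Em 680 nm) after 2 h at 23° C. Compounds were titrated over 11 points against 1 nM Cy5-BCL-xL and 400 nM quencher-tagged PUMA peptide in pH 7.4 HEPES (10 mM), 150 mM NaCl, 0.05% Tween 20, 5% DMSO.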

[2] = tested on: MOLT-4 cells; experiment: MOLT-4 cell viability using MTT assay; format: cell-based; conditions: Homo sapiens, MOLT-4, 48 h, 48 h exposure
Description: MTT colorimetric assay is based on the mitochondrial reduction of tetrazolium salt by living cells.
Cells were cultured at 37° C. in a humidified atmosphere containing 5% CO2. […] At the end of incubation time, 15 μL of MTT solution (5 mg/ml) were added per well and the cells were incubated for another 4 h. […] IC50s were calculated using standard four-parametric curve fitting.

Row | Structure (SMILES) | Ki [1] [pM] | IC50 [2] [pM]
1 | Cc1c(Nc2nc3ccccc3s2)nnc2c1CCCN2c1ccc(-c2cnn(CC34CC5(C)CC(C)(CC(CCCN(C)C)(C5)C3)C4)c2C)c(C(=O)O)n1 [Example 167, 6-[3-(1,3-benzothiazol-2-ylamino)-4-methyl-6,7-dihydro-5H-pyrido[2,3-c]pyridazin-8-yl]-3-[1-[[3-[3-(dimethylamino)propyl]-5,7-dimethyl-1-adamantyl]methyl]-5-methyl-pyrazol-4-yl]pyridine-2-carboxylic acid] | 1.9 | 53.2
2 | Cc1c(Nc2nc3ccccc3s2)nnc2c1CCCN2c1ccc(-c2cnn(CC34CC5(C)CC(C)(CC(CCCN6CCN(C)CC6)(C5)C3)C4)c2C)c(C(=O)O)n1 [Example 168, 6-[3-(1,3-benzothiazol-2-ylamino)-4-methyl-6,7-dihydro-5H-pyrido[2,3-c]pyridazin-8-yl]-3-[1-[[3,5-dimethyl-7-[3-(4-methylpiperazin-1-yl)propyl]-1-adamantyl]methyl]-5-methyl-pyrazol-4-yl]pyridine-2-carboxylic acid] | 2.9 | 291
3 | Cc1c(Nc2nc3ccccc3s2)nnc2c1CCCN2c1ccc(-c2cnn(CC34CC5(C)CC(C)(CC(CCCNCCCO)(C5)C3)C4)c2C)c(C(=O)O)n1 [Example 170, 6-[3-(1,3-benzothiazol-2-ylamino)-4-methyl-6,7-dihydro-5H-pyrido[2,3-c]pyridazin-8-yl]-3-[1-[[3-[3-(3-hydroxypropylamino)propyl]-5,7-dimethyl-1-adamantyl]methyl]-5-methyl-pyrazol-4-yl]pyridine-2-carboxylic acid] | 2.7 | 787
4 | Cc1c(Nc2nc3ccccc3s2)nnc2c1CCCN2c1ccc(-c2cnn(CC34CC5(C)CC(C)(CC(CCCNCC[C@H](O)CO)(C5)C3)C4)c2C)c(C(=O)O)n1 [Example 172, 6-[3-(1,3-benzothiazol-2-ylamino)-4-methyl-6,7-dihydro-5H-pyrido[2,3-c]pyridazin-8-yl]-3-[1-[[3-[3-[[(3S)-3,4-dihydroxybutyl]amino]propyl]-5,7-dimethyl-1-adamantyl]methyl]-5-methyl-pyrazol-4-yl]pyridine-2-carboxylic acid] | 2 | 3250
5 | Cc1c(Nc2nc3cccc(F)c3s2)nnc2c1CCCN2c1ccc(-c2cnn(CC34CC5(C)CC(C)(C3)CC(OCCN3CCCC3)(C5)C4)c2C)c(C(=O)O)n1 [Example 178, 3-[1-[[3,5-dimethyl-7-(2-pyrrolidin-1-ylethoxy)-1-adamantyl]methyl]-5-methyl-pyrazol-4-yl]-6-[3-[(7-fluoro-1,3-benzothiazol-2-yl)amino]-4-methyl-6,7-dihydro-5H-pyrido[2,3-c]pyridazin-8-yl]pyridine-2-carboxylic acid] | 2.2 | 641
6 | Cc1ccc2sc(Nc3nnc4c(c3C)CCCN4c3ccc(-c4cnn(CC56CC7(C)CC(C)(C5)CC(OCCN5CCCC5)(C7)C6)c4C)c(C(=O)O)n3)nc2c1 [Example 179, 3-[1-[[3,5-dimethyl-7-(2-pyrrolidin-1-ylethoxy)-1-adamantyl]methyl]-5-methyl-pyrazol-4-yl]-6-[4-methyl-3-[(5-methyl-1,3-benzothiazol-2-yl)amino]-6,7-dihydro-5H-pyrido[2,3-c]pyridazin-8-yl]pyridine-2-carboxylic acid] | 2.9 | 91.6
